We go through one compound from patent US20010051181A1, “NOVEL FORMULATIONS FOR THE TRANSDERMAL ADMINISTRATION OF ASIMADOLINE” (priority 1997, published 2001).

Counter-ions that a name gives are not always drawn.

A short description of the series: in vitro skin flux of asimadoline through human cadaver epidermis. It counts as in vitro ADME. Particulars: representative range; depending on the drug form, permeation enhancer, and if an in-line adhesive is present. How it is done: Release of asimadoline from transdermal systems into aqueous medium was measured over 24 hours at 35° C. Each system had its exposed edges masked. The systems were then mounted on a Teflon® holder of a release rate rod using nylon mesh and nickel wire. A known volume of receptor solution (50 mM Na2PO4, pH 5.5) was then placed in a test tube and equilibrated at 35° C. The test tube was placed in a water bath and maintained at 35° C. The Teflon rod with attached system was then reciprocated within the test tube by attaching the rod to a motor which caused constant vertical mixing.
At given time intervals, the entire receptor solution was removed from the test tubes and replaced with an equal volume of fresh receptor solutions previously equilibrated at 35° C. The receptor solutions were stored in capped vials at 4° C. until assayed for asimadoline content by HPLC. From the drug concentration and the volume of the receptor solutions, the area of the system and the time interval, the release rate of the drug from the system was calculated as follows: (drug concentration×volume of receptor)/(area×time)=release rate (μg/cm^2 hr). […]
Transdermal systems set forth in Table 1 were prepared according to Example 1 and used to measure permeation through human cadaver skin. […] Asimadoline permeation through the epidermis was then measured according to the procedure set forth in Example 1. […]

As for `CN(C(=O)C(c1ccccc1)c1ccccc1)[C@H](CN1CC[C@H](O)C1)c1ccccc1` [asimadoline hydrochloride, N-[(aS)-α-[[(3S)-3-Hydroxy-1-pyrrolidinyl]methyl]benzyl]-N-methyl-2,2-diphenylacetamide], the “in vitro skin flux through human skin” value is listed as 0.2-10 mg/cm^2·hr.
